Data reported in patent publication US6194408A, “Triazineone compounds for treating diseases due to Sarcocystis, Neospora and Toxoplasma” (Bayer Corporation, priority 1998, dated 2001).

Experiments:
[1] = Pharmacokinetics of a single oral dose of Toltrazuril in horses (blood levels); type: in vivo; settings: horses receiving single oral 10 mg/kg Toltrazuril
Experimental: A pharmacokinetic study was conducted in horses comparing blood levels of Toltrazuril, Ponazuril and Toltrazuril Sulfoxide at various times post a single dose of Toltrazuril. All horses received a single dose of 10 mg/kg, which was administered orally as a suspension. Blood samples were drawn at the time of treatment (0) and at 0.25, 0.5, 1, 2, 4, 6, 12, 24, 48 and 72 hours post treatment. […] This was an indication that Ponazuril, alone, would produce acceptable blood levels that are envisioned to pass the blood-brain barrier, a characteristic required to treat neurological diseases such as those caused by Sarcocystis neurona, Toxoplasma gondii, Neospora caninum and Neospora heugesi.

EPM-Infected Horses = assay: Response of EPM-infected horses to treatment (clinical score); type: in vivo
Experimental: The compound was formulated into a paste using Ponazuril as a 15% active ingredient (a.i.) as described in EXAMPLE 1. It was administered to horses already diagnosed with EPM once a day for 28 days at a dose rate between 2.5 mg/Kg and 10 mg/Kg.
Naturally occurring clinical cases of EPM were well characterized by signalment and laboratory diagnosis. The diagnosis used for incorporation of EPM-positive horses into this trial was as follows: Confirmed asymmetrical neurological deficit as determined by a standardized neurological examination, to include radiography, indicative of EPM; Positive Western Blot for Sarcocystis neurona IgG; Red Blood Cell count below 500 cells/mL; CSF indices--Total Protein <90, IgG index >0.3. AQ quotient <2.2.
Additional requirements were that the horses were not suffering from diseases other than EPM. Therefore, they had to meet the following criteria: Negative CSF (<1:4) for EHV-1; Normal serum values for Vitamin E (.2.0 μg/mL); Lack of seizure disorders; Lack of behavior disorders.
Diagnosed horses were randomly assigned to groups. Group 1 horses received the paste formulation daily at a dose rate of 5mg/Kg whereas Group 2 horses received the paste formulation daily at a dose rate of 10 mg/Kg. The treatment dose was based on body weight. The horses were evaluated for a period of 90 days (approximately 60 days after discontinuation of treatment) in order to determine that treatment was indeed effective. The response to treatment was scored using the following system: 1) 0=complete success-clinically normal with a negative CSF; 2) 1=Deficit just detected at a normal gait; 3) 2=Deficit easily detected and exaggerated by backing, turning, swaying, jaw loin pressure and neck extension; 4) 3=Deficit very prominent on walking, Facial turning, loin pressure or neck extension; 5) 4=Stumbling, tripping and falling down spontaneously; 6) 5=Recumbent, unable to rise. An improvement of one (1) unit in the score was considered a significant improvement.

Sarcocystis neurona = assay: Microtiter Monolayer Disruption Assay (MMDA), inhibition of BT cell destruction by S. neurona; type: cell-based; settings: 10 μg/mL, read-out: Percent Inhibition of Cell Destruction
Experimental: (§1) In order to determine the scope of protection provided by Ponazuril, in vitro testing was conducted. The following strains of parasites were evaluated for their sensitivity to this compound: Strain SN3 of Sarcocystis neurona; strain SF1 of Sarcocystis falcatula; strain RH of Toxoplasma gondii; and the NC-1 strain of Neospora caninum. Ponazuril was tested at concentrations (1 μg/mL and 10 μg/mL).
(§2) Bovine turbinate (BT) cells were used for all in vitro studies. Cells were grown to confluency in 25 cm^2 flasks in RMPI 1640 media supplemented with 10% v/v fetal bovine serum (FBS), 100 Units penicillin (G/mL), […] and 5×10^-2 mM 2-mercpatoethanol. After cell confluence was obtained, cells were maintained in the same media with reduced FBS (2% v/v). Cell cultures were incubated at 37° C. in a humidified atmosphere containing 5% carbon dioxide and 95% air. […]
(§3) The assay used to determine the effectiveness of Ponazuril was the Microtiter Monolayer Disruption Assay (MMDA). […] Flat bottomed 96-well microtiter plates were inoculated with BT cells and the resulting monolayers were used to determine the effects of Toltrazuril and Ponazuril on merozoite production as measured by CPE (plaque formation). […]

Sarcocystis falcatula = assay: Microtiter Monolayer Disruption Assay (MMDA), inhibition of BT cell destruction by S. falcatula; type: cell-based; settings: 1 μg/mL, read-out: Percent Inhibition of Cell Destruction
Experimental: as §1, §2, §3

Neospora caninum NC-1 = assay: Microtiter Monolayer Disruption Assay (MMDA), inhibition of BT cell destruction by N. caninum; type: cell-based; settings: 1.0 μg/mL, read-out: Percent Inhibition of Cell Destruction
Experimental: as §1, §2, §3

Toxoplasma gondii = assay: Microtiter Monolayer Disruption Assay (MMDA), inhibition of BT cell destruction by T. gondii; type: cell-based; settings: 1.0 μg/mL, read-out: Percent Inhibition of Cell Destruction
Experimental: as §1, §2, §3

[2] = tested on: Bovine turbinate (BT) cells; type: cell-based; settings: uninfected agent treated BT cells
Experimental: Bovine turbinate (BT) cells were used for all in vitro studies. Cells were grown to confluency in 25 cm^2 flasks in RMPI 1640 media supplemented with 10% v/v fetal bovine serum (FBS), 100 Units penicillin (G/mL), […] and 5×10^-2 mM 2-mercpatoethanol. After cell confluence was obtained, cells were maintained in the same media with reduced FBS (2% v/v). Cell cultures were incubated at 37° C. in a humidified atmosphere containing 5% carbon dioxide and 95% air.
The assay used to determine the effectiveness of Ponazuril was the Microtiter Monolayer Disruption Assay (MMDA). This assay was used to determine if the parasites or compound were toxic for BT cells. Flat bottomed 96-well microtiter plates were inoculated with BT cells and the resulting monolayers were used to determine the effects of Toltrazuril and Ponazuril on merozoite production as measured by CPE (plaque formation). […]

[3] = Cerebral spinal fluid drug levels / passage of blood-brain barrier after repeated doses of Toltrazuril in horses; type: in vivo; settings: horses
Experimental: This experiment was conducted in order to determine whether triazineones such as Toltrazuril can pass the blood-brain barrier. Normal horses were divided into three groups of three horses per group. Group 1 horses received Toltrazuril administered orally as a 5% suspension at a dose level of 2.5 mg/Kg. Group 2 horses received Toltrazuril administered orally as a 5% suspension at a dose level of 5.0 mg/Kg. Group 3 horses received Toltrazuril administered orally as a 5% suspension at a dose level of 7.5 mg/Kg. The dosing was repeated daily for 10 days. Blood samples were drawn at 48, 96 and 240 hours and the concentration of Toltrazuril, Toltrazuril sulfoxide and Ponazuril in the serum was measured. Ten days after the start of the treatment (Day 10), a sample of cerebral spinal fluid was removed from each horse and the concentrations of Toltrazuril, Toltrazuril Sulfoxide and Ponazuril were again measured in these samples. The concentrations of Toltrazuril, Toltrazuril Sulfoxide and Ponazuril in the serum and cerebral spinal fluid are reported in TABLES 5a and 5b.

[4] = Safety and effectiveness of a single high dose; type: in vivo; settings: doses as high as 100 mg/Kg body weight
Experimental: For the single high dose treatment the triazineone is administered in pharmaceutically effective amounts that are greater than 10 mg/Kg and up to about 100 mg/Kg. It is a distinct feature of the invention the compounds of this invention can be non-toxic, thus they can be administrated at high dose levels. The advantage of the high dose administration resides in the fact repeated doses are not required.

[5] = after treatment with Toltrazuril

For Cc1cc(-n2c(=O)[nH]c(=O)n(C)c2=O)ccc1Oc1ccc(S(=O)(=O)C(F)(F)F)cc1 [Ponazuril], the “Levels in serum / bloodstream (in words)” value [1] was “relatively high levels”, the “Horses demonstrating acceptable improvement” value (EPM-Infected Horses; 5 mg/Kg dose, eight of nine horses) was 88.9% and the TOTAL clinical score (EPM-Infected Horses; 5 mg/Kg group, Day 0 (baseline)) was 17. The TOTAL clinical score (EPM-Infected Horses; 5 mg/Kg group, Day 28) was 13, the TOTAL clinical score (EPM-Infected Horses; 5 mg/Kg group, Day 90) was 6 and the “Horses showing significant improvement in clinical score” value (EPM-Infected Horses; 10 mg/Kg group, 28 days, by day 90 post start of treatment) was 100%. It also gave a TOTAL clinical score (EPM-Infected Horses; 10 mg/Kg group, Day 0 (baseline)) of 19, a TOTAL clinical score (EPM-Infected Horses; 10 mg/Kg group, Day 28) of 15 and a TOTAL clinical score (EPM-Infected Horses; 10 mg/Kg group, Day 90) of 4. For the same compound, the “Improvement in total scores, Group 1 (5 mg/Kg) versus Group 2 (10 mg/Kg)” value (EPM-Infected Horses; EPM horses, 5 vs 10 mg/Kg) was “approximately equivalent”, the “Effectiveness for active treatment of EPM” value (EPM-Infected Horses; at either 5 mg/Kg or 10 mg/Kg, horses) was “effective for the active treatment of EPM in horses” and the inhibition at 10 µg/mL (Sarcocystis neurona) was 100%. For the same compound, the inhibition at 1 µg/mL (Sarcocystis falcatula) was 100%, the inhibition at 1 µg/mL (Neospora caninum NC-1) was 100% and the inhibition at 1 µg/mL (Toxoplasma gondii) was 100%. The “Toxicity to BT cells” value [2] was “not toxic to the BT cells”, the “Crossing of the blood-brain barrier” value ([3]; after oral Toltrazuril daily for 10 days) was “effectively cross the blood-brain barrier” and the “Concentration in cerebral spinal fluid relative to that of Toltrazuril” value [3, 5] was “essentially equivalent to the concentration of Toltrazuril itself”. The “Crossing of the blood-brain barrier compared with Toltrazuril” value [3, 5] was “crosses this barrier more effectively than does Toltrazuril” and the Safety and effectiveness [4] was “both safe and effective”.
